Data: article PMC6204753, “Non-native autoinducer analogs capable of modulating the SdiA quorum sensing receptor in Salmonella enterica serovar Typhimurium” (Beilstein Journal of Organic Chemistry, 2018)
Values joined by “and” are separate entries in the source; they are usually repeats but may differ in a detail not shown here. Equal entries are not always repeated. Where two headings read alike, the source gives them in different places.

Tests used:
S. Typhimurium-pJNS25 = assay type: cell-based; conditions: 100 μM compound; footnote f: Cell growth inhibited at this compound concentration
Procedure: (§1) Salmonella SdiA reporter assay. S. Typhimurium-pJNS25 was grown 16–18 h overnight in LB, diluted 1:100 in fresh LB medium, and then incubated for 6 h at 37 °C with shaking at 200 rpm in the presence of compounds (1% DMSO). For antagonism assays, OOHL (2) at its EC90 (10 nM, 0.1% DMSO) was added to the subculture immediately prior to adding the compound for testing. All compounds were screened at 100 μM and 1 μM in triplicate in agonism and antagonism assays. Raw luminescence values were divided by the OD600 and then normalized to the controls; negative (DMSO) and positive (10 μM OOHL) control samples were included in every assay plate and used to normalize assay results, setting the positive control to 100% and the negative control to 0%. Luminescence was measured using a Biotek Synergy 2 plate reader and Gen 5 software (version 1.05). Dose–response analyses were performed by preparing dilutions of compounds in DMSO and testing each concentration in the agonism or antagonism assays. Competition dose–response assays (data in Figure 5) were performed in the same manner as the antagonism assays, except instead of OOHL being added to the subculture, the antagonist being tested was added. Non-linear regression curve fits were generated using GraphPad Prism software (version 6) using variable slope (four parameter) dose–response analysis.

SdiA [1] = biological target: T1, SdiA (Salmonella enterica subsp. enterica serovar Typhimurium, UniProt O66040); test: S. Typhimurium-pJNS25 SdiA reporter, competitive antagonism against 10 nM L-OOHL; assay type: cell-based; conditions: for inhibition at 1 µM: read-out: Antagonism 1 μM Inhibition (%); for inhibition at 100 µM: 100 μM compound, read-out: Antagonism 100 μM Inhibition (%); for Emax: maximal inhibition, 100% minus lowest % activity in presence of 10 nM L-OOHL (2), read-out: inhibition (%)
Summary of the method: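 S. Typhimurium-pJNS25 (native SdiA, srgE promoter–luxCDABE) subcultured 1:100 in LB and incubated 6 h at 37 °C, 200 rpm, with compound (1% DMSO); antagonism run against 10 nM L-OOHL. Luminescence normalised between 10 μM OOHL and 1% DMSO controls; triplicates; four-parameter dose–response fits.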

SdiA [2] = biological target: T1, SdiA; parameters: method as in PMID 17085703; conditions: racemates; cited from earlier work
SdiA [3] = biological target: T1, SdiA; test: S. Typhimurium-pJNS25 SdiA reporter, agonism (luminescence); assay type: cell-based; conditions: for Emax: read-out: activation (%)
Text: Biological assays for SdiA activity. Cell-based reporter strains that rely on detecting the transcriptional activity of LuxR-type receptors are commonly used to assess the activity of exogenous ligands. We used the S. Typhimurium-pJNS25 reporter strain constructed by Smith and Ahmer and also used by Janssens et al. to examine SdiA activity. This strain naturally produces SdiA and contains a reporter plasmid with the promoter region for srgE fused to the luxABCDE operon of V. fischeri (see Experimental section for details of all strains and plasmids). SdiA activity is thus reported by the production of luciferase and resulting bioluminescence. We also prepared an SdiA reporter in E. coli (JLD271-pJN105SE-pSC11SE) to examine S. Typhimurium SdiA activity in an alternate background and with a different reporter gene output. […] This reporter construct uses an arabinose inducible promoter to produce S. Typhimurium SdiA and the promoter region for srgE fused to lacZ to report SdiA activity. SdiA activity is then measured using standard β-galactosidase assays. In both reporter strains, signal was normalized to the difference between the positive control (10 μM OOHL) and the negative control (1% DMSO; no compound).
Salmonella SdiA reporter assay. S. Typhimurium-pJNS25 was grown 16–18 h overnight in LB, diluted 1:100 in fresh LB medium, and then incubated for 6 h at 37 °C with shaking at 200 rpm in the presence of compounds (1% DMSO). […] All compounds were screened at 100 μM and 1 μM in triplicate in agonism and antagonism assays. […] Dose–response analyses were performed by preparing dilutions of compounds in DMSO and testing each concentration in the agonism or antagonism assays. Competition dose–response assays (data in Figure 5) were performed in the same manner as the antagonism assays, except instead of OOHL being added to the subculture, the antagonist being tested was added. Non-linear regression curve fits were generated using GraphPad Prism software (version 6) using variable slope (four parameter) dose–response analysis.

S. Typhimurium SdiA [4] = biological target: T2, S. Typhimurium SdiA (Salmonella enterica subsp. enterica serovar Typhimurium, UniProt O66040); test: E. coli JLD271-pJN105SE-pSC11SE SdiA reporter, antagonism (β-galactosidase); assay type: cell-based; conditions: for inhibition (%): E. coli reporter, against OOHL at its EC50 (1.5 nM), NA = not active
Text: (§2) Biological assays for SdiA activity. Cell-based reporter strains that rely on detecting the transcriptional activity of LuxR-type receptors are commonly used to assess the activity of exogenous ligands. We used the S. Typhimurium-pJNS25 reporter strain constructed by Smith and Ahmer and also used by Janssens et al. to examine SdiA activity. This strain naturally produces SdiA and contains a reporter plasmid with the promoter region for srgE fused to the luxABCDE operon of V. fischeri (see Experimental section for details of all strains and plasmids). SdiA activity is thus reported by the production of luciferase and resulting bioluminescence. We also prepared an SdiA reporter in E. coli (JLD271-pJN105SE-pSC11SE) to examine S. Typhimurium SdiA activity in an alternate background and with a different reporter gene output. E. coli JLD271 is the sdiA mutant of K-12 E. coli. This reporter construct uses an arabinose inducible promoter to produce S. Typhimurium SdiA and the promoter region for srgE fused to lacZ to report SdiA activity. SdiA activity is then measured using standard β-galactosidase assays. In both reporter strains, signal was normalized to the difference between the positive control (10 μM OOHL) and the negative control (1% DMSO; no compound).
E. coli SdiA reporter assay. The β-galactosidase assay using the E. coli SdiA reporter was performed as reported previously, with minor modifications. The reporter strain was grown 16–18 h overnight in LB, diluted 1:10 in fresh LB medium, and incubated at 37 °C with shaking at 200 rpm until it reached an OD600 of 0.25. Expression of SdiA was induced by the addition of 4 mg/mL arabinose, and the culture was incubated in the presence of compounds (1% DMSO) for 4 h at 37 °C with shaking at 200 rpm. […] A 50 μL aliquot of culture from each well was lysed in 200 μL of Z-buffer and 8 μL of chloroform, and a 100 μL aliquot of this lysate was incubated with 25 μL of 4 mg/mL ONPG for 20 min at 30 °C before reading absorption at 420 nm and 550 nm using a Biotek Synergy 2 plate reader. Non-linear regression curve fits were generated using GraphPad Prism software (version 6) using variable slope (four parameter) dose–response analysis.

SdiA [5] = biological target: T1, SdiA; test: Competition dose–response of OOHL (2) against antagonists in the S. Typhimurium SdiA reporter; assay type: cell-based; conditions: for inhibition profile in competition assay (in words): against OOHL (2)
Procedure: We also submitted compounds 11, R8, and F45 to competition-type assays in the S. Typhimurium SdiA reporter to further characterize their activity profiles. […] The results are shown in Figure 5 (EC50 and maximal activity values listed in Supporting Information File 3).
as §1

S. Typhimurium SdiA [6] = biological target: T2, S. Typhimurium SdiA; test: E. coli JLD271-pJN105SE-pSC11SE SdiA reporter, agonism; assay type: cell-based
Text: as §2, with “This reporter construct uses an arabinose inducible promoter to produce S. Typhimurium SdiA and the promoter region for srgE fused to lacZ to report SdiA activity.” left out, “In both reporter strains, signal was normalized to the difference between the positive control (10 μM OOHL) and the negative control (1% DMSO; no compound).” left out
E. coli SdiA reporter assay. […] A 50 μL aliquot of culture from each well was lysed in 200 μL of Z-buffer and 8 μL of chloroform, and a 100 μL aliquot of this lysate was incubated with 25 μL of 4 mg/mL ONPG for 20 min at 30 °C before reading absorption at 420 nm and 550 nm using a Biotek Synergy 2 plate reader. […]

[7] = 1 μM compound, average ± STD, change in activity from 10 nM 2 (OOHL)
[8] = average ± STD, change in activity from 10 nM 2 (OOHL)
[9] = maximal activation of the antagonists (partial agonism), Table 3

T1 sequence (O66040 entry or part of it): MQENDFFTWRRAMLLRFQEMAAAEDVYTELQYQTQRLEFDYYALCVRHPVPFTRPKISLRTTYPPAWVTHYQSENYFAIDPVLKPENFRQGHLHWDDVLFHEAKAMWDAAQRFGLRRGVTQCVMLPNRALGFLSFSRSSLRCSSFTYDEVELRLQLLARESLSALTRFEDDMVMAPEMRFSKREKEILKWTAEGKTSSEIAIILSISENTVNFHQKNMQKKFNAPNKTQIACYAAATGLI
T2 sequence (O66040 entry or part of it): as above

SMILES	EC50 (SdiA [2]) [nM]	inhibition at 1 µM (SdiA [1]; [7]) [%]	inhibition at 100 µM (SdiA [1]; [8]) [%]	IC50 (SdiA [1]; against 10 nM L-OOHL (EC90))	Emax (SdiA [3]; [9]) [%]	inhibition (%) (S. Typhimurium SdiA [4])	inhibition profile in competition assay (in words) (SdiA [5])	EC50 (SdiA [5]; antagonist at 0.1 μM) [nM]	EC50 (SdiA [5]; antagonist at 1 μM) [nM]	EC50 (SdiA [5]; antagonist at 10 μM) [nM]	other results
O=C1C=C(Br)C(=CBr)O1 [compound 21, reference compound]	–	–	–	–	–	–	–	–	–	–	cell growth (S. Typhimurium-pJNS25): --f; Antagonism 1 μM Inhibition (%) (SdiA [1]; [7]): 29 ± 13%
CCCCCCCC(=O)NC1CCOC1=O (racemic) [DL-OHL (C8)]	7	–	–	–	–	–	–	–	–	–	–
CCOC(=O)CNC(=O)Cc1cccc(I)c1 [F45]	–	8 ± 10	92 ± 2	28500 nM	26	failed to display antagonistic activity	non-competitive inhibition profile	1.77	1.33	4.11	Emax (SdiA [1]): 87%
O=C(CCCCCCCCCN=C=S)CC(=O)N[C@H]1CCOC1=O [compound 11, reference compound]	–	64 ± 6	128 ± 1	320 nM	-33	fully inhibit SdiA activity	both competitive and non-competitive inhibition	72.3	220	1310	IC50 (SdiA [1]; against 10 nM L-OOHL): 318 nM; IC50 (S. Typhimurium SdiA [4]): 380 nM; inhibition at 0.0015 µM (S. Typhimurium SdiA [4]): 130%; EC50 (SdiA [5]; antagonist at 100 μM): 4670 nM
CCCCCCCCCC(=O)NC1CCOC1=O (racemic) [DL-DHL (C10)]	1000	–	–	–	–	–	–	–	–	–	–
CCCCCCCCCCCOc1ccc(C(=O)N[C@H]2CCOC2=O)cc1 [R8]	–	18 ± 5	67 ± 5	44000 nM and 44200 nM	24	fully inhibit SdiA activity	competitive SdiA inhibition	1.57	1.51	2.52	Emax (SdiA [1]): > 100%; inhibition at 0.0015 µM (S. Typhimurium SdiA [4]): 106%; EC50 (SdiA [5]; antagonist at 100 μM): 10.6 nM
CCCCCC(=O)CC(=O)N[C@H]1CCOC1=O [compound 2, reference compound]	–	-2 ± 9	9 ± 5	–	–	–	–	–	–	–	EC90 (SdiA [3]; S. Typhimurium reporter): 10 nM; EC50 (SdiA [3]; agonism dose–response, read-out: EC50): 1.03 nM; Emax (SdiA [3]; maximal activity (efficacy) from agonism dose–response, 10 μM OOHL = 100%, DMSO = 0%): 110%; EC50 (SdiA [5]; no antagonist (0)): 1.03 nM; EC50 (S. Typhimurium SdiA [6]): 1.5 nM
CCCCCC(=O)CC(=O)NC1CCSC1=O (racemic) [DL-3-oxo-C8 thiolactone]	1	–	–	–	–	–	–	–	–	–	–
CCCCCC(=O)CC(=O)NC1CCOC1=O (racemic) [DL-OOHL, N-(3-oxooctanoyl) DL-homoserine lactone]	3	–	–	–	–	–	–	–	–	–	–
CCCC(=O)CC(=O)NC1CCOC1=O (racemic) [DL-OHHL (3-oxo-C6)]	5	–	–	–	–	–	–	–	–	–	–
